In ChEMBL document CHEMBL4507258 (2021):

Assays:
[1] = molecular target: Cyclin-dependent kinase 14 (Homo sapiens) (UniProt O94921); settings: Compound concentration 1000.0 nM
[2] = molecular target: Inhibitor of nuclear factor kappa-B kinase subunit epsilon (Homo sapiens) (UniProt Q14164); settings: Compound concentration 1000.0 nM
[3] = molecular target: Eukaryotic translation initiation factor 2-alpha kinase 1 (Homo sapiens) (UniProt Q9BQI3); settings: Compound concentration 1000.0 nM
[4] = molecular target: Serine/threonine-protein kinase 4 (Homo sapiens) (UniProt Q13043); settings: Compound concentration 1000.0 nM
[5] = molecular target: Dual specificity protein kinase CLK1 (Homo sapiens) (UniProt P49759); settings: Compound concentration 1000.0 nM
[6] = molecular target: Phosphatidylinositol 3-kinase catalytic subunit type 3 (Homo sapiens) (UniProt Q8NEB9); settings: Compound concentration 1000.0 nM
[7] = molecular target: Dual specificity protein kinase CLK2 (Homo sapiens) (UniProt P49760); settings: Compound concentration 1000.0 nM
[8] = molecular target: Cyclin-dependent kinase 17 (Homo sapiens) (UniProt Q00537); settings: Compound concentration 1000.0 nM
[9] = molecular target: cAMP-dependent protein kinase catalytic subunit alpha (Homo sapiens) (UniProt P17612); settings: Compound concentration 1000.0 nM
[10] = molecular target: Hepatocyte growth factor receptor (Homo sapiens) (UniProt P08581); settings: Compound concentration 1000.0 nM
[11] = molecular target: Calcium/calmodulin-dependent protein kinase type II subunit beta (Homo sapiens) (UniProt Q13554); settings: Compound concentration 1000.0 nM
[12] = molecular target: Dual specificity mitogen-activated protein kinase kinase 2 (Homo sapiens) (UniProt P36507); settings: Compound concentration 1000.0 nM
[13] = molecular target: Macrophage-stimulating protein receptor (Homo sapiens) (UniProt Q04912); settings: Compound concentration 1000.0 nM
[14] = molecular target: Non-receptor tyrosine-protein kinase TYK2 (Homo sapiens) (UniProt P29597); settings: Compound concentration 1000.0 nM
[15] = molecular target: Protein kinase C epsilon type (Homo sapiens) (UniProt Q02156); settings: Compound concentration 1000.0 nM
[16] = molecular target: Serine/threonine-protein kinase PAK 4 (Homo sapiens) (UniProt O96013); settings: Compound concentration 1000.0 nM
[17] = molecular target: Serine/threonine-protein kinase/endoribonuclease IRE1 (Homo sapiens) (UniProt O75460); settings: Compound concentration 1000.0 nM
[18] = molecular target: Dual specificity mitogen-activated protein kinase kinase 3 (Homo sapiens) (UniProt P46734); settings: Compound concentration 1000.0 nM
[19] = molecular target: Tyrosine-protein kinase receptor TYRO3 (Homo sapiens) (UniProt Q06418); settings: Compound concentration 1000.0 nM
[20] = molecular target: Tyrosine-protein kinase Fyn (Homo sapiens) (UniProt P06241); settings: Compound concentration 1000.0 nM
[21] = molecular target: Mitogen-activated protein kinase kinase kinase 15 (Homo sapiens) (UniProt Q6ZN16); settings: Compound concentration 1000.0 nM
[22] = molecular target: Fibroblast growth factor receptor 3 (Homo sapiens) (UniProt P22607); settings: Compound concentration 1000.0 nM
[23] = molecular target: Ephrin type-A receptor 3 (Homo sapiens) (UniProt P29320); settings: Compound concentration 1000.0 nM
[24] = molecular target: Tyrosine-protein kinase Yes (Homo sapiens) (UniProt P07947); settings: Compound concentration 1000.0 nM
[25] = molecular target: Ribosomal protein S6 kinase alpha-1 (Homo sapiens) (UniProt Q15418); settings: Compound concentration 1000.0 nM
[26] = molecular target: Mitogen-activated protein kinase 14 (Homo sapiens) (UniProt Q16539); settings: Compound concentration 1000.0 nM
[27] = molecular target: BDNF/NT-3 growth factors receptor (Homo sapiens) (UniProt Q16620); settings: Compound concentration 1000.0 nM
[28] = molecular target: Phosphatidylinositol 4,5-bisphosphate 3-kinase catalytic subunit beta isoform (Homo sapiens) (UniProt P42338); settings: Compound concentration 1000.0 nM
[29] = molecular target: Alpha-1B adrenergic receptor (Homo sapiens) (UniProt P35368); settings: Compound concentration 10.0 uM
[30] = molecular target: Tyrosine-protein kinase Tec (Homo sapiens) (UniProt P42680); settings: Compound concentration 1000.0 nM
[31] = molecular target: Beta-adrenergic receptor kinase 1 (Homo sapiens) (UniProt P25098); settings: Compound concentration 1000.0 nM
[32] = system: Proto-oncogene tyrosine-protein kinase receptor Ret (Homo sapiens), P07949 [V804L]; settings: Compound concentration 1000.0 nM
[33] = system: Epidermal growth factor receptor (Homo sapiens), P00533 [UNDEFINED MUTATION]; settings: Compound concentration 1000.0 nM
[34] = molecular target: Serine/threonine-protein kinase STK11 (Homo sapiens) (UniProt Q15831); settings: Compound concentration 1000.0 nM
[35] = molecular target: Mitogen-activated protein kinase kinase kinase 1 (Homo sapiens) (UniProt Q13233); settings: Compound concentration 1000.0 nM
[36] = molecular target: Cyclin-dependent kinase 3 (Homo sapiens) (UniProt Q00526); settings: Compound concentration 1000.0 nM
[37] = system: Phosphatidylinositol 4,5-bisphosphate 3-kinase catalytic subunit alpha isoform (Homo sapiens), P42336 [Q546K]; settings: Compound concentration 1000.0 nM
[38] = system: ALK tyrosine kinase receptor (Homo sapiens), Q9UM73 [L1196M]; settings: Compound concentration 1000.0 nM
[39] = molecular target: Dual specificity mitogen-activated protein kinase kinase 5 (Homo sapiens) (UniProt Q13163); settings: Compound concentration 1000.0 nM
[40] = molecular target: Protein kinase C iota type (Homo sapiens) (UniProt P41743); settings: Compound concentration 1000.0 nM
[41] = molecular target: Platelet-derived growth factor receptor alpha (Homo sapiens) (UniProt P16234); settings: Compound concentration 1000.0 nM
[42] = molecular target: Mitogen-activated protein kinase kinase kinase 5 (Homo sapiens) (UniProt Q99683); settings: Compound concentration 1000.0 nM
[43] = molecular target: Dual specificity tyrosine-phosphorylation-regulated kinase 2 (Homo sapiens) (UniProt Q92630); settings: Compound concentration 1000.0 nM
[44] = molecular target: Peripheral plasma membrane protein CASK (Homo sapiens) (UniProt O14936); settings: Compound concentration 1000.0 nM
[45] = molecular target: Serine/threonine-protein kinase 33 (Homo sapiens) (UniProt Q9BYT3); settings: Compound concentration 1000.0 nM

Protein kinase C iota type (Homo sapiens), sequence (P41743 whole entry): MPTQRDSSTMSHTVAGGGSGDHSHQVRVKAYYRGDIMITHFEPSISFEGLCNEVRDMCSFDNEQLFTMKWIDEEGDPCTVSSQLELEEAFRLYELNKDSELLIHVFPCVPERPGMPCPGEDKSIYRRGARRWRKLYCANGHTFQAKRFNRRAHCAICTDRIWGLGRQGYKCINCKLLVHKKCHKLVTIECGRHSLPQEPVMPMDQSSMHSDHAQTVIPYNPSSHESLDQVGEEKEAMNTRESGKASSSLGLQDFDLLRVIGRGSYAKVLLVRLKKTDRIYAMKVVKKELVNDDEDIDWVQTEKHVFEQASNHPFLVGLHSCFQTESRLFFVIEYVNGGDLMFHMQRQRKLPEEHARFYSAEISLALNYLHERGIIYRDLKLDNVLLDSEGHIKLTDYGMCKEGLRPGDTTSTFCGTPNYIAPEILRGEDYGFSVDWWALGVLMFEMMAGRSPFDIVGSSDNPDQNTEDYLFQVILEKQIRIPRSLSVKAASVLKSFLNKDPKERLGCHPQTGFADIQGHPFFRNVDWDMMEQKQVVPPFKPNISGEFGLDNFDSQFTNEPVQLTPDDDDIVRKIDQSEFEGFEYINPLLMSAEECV
Dual specificity mitogen-activated protein kinase kinase 2 (Homo sapiens), sequence (P36507 whole entry): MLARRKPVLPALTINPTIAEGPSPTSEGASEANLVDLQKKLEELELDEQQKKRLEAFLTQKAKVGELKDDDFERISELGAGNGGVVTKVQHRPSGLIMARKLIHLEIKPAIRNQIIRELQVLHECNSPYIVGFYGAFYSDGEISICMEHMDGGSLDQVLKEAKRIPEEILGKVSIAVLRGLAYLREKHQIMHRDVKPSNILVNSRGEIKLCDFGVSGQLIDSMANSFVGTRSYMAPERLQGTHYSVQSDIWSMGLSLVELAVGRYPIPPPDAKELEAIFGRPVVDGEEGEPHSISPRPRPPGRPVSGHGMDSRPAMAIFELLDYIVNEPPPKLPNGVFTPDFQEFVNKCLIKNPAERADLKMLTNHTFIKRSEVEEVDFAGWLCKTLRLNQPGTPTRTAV
Phosphatidylinositol 3-kinase catalytic subunit type 3 (Homo sapiens), sequence (Q8NEB9 whole entry): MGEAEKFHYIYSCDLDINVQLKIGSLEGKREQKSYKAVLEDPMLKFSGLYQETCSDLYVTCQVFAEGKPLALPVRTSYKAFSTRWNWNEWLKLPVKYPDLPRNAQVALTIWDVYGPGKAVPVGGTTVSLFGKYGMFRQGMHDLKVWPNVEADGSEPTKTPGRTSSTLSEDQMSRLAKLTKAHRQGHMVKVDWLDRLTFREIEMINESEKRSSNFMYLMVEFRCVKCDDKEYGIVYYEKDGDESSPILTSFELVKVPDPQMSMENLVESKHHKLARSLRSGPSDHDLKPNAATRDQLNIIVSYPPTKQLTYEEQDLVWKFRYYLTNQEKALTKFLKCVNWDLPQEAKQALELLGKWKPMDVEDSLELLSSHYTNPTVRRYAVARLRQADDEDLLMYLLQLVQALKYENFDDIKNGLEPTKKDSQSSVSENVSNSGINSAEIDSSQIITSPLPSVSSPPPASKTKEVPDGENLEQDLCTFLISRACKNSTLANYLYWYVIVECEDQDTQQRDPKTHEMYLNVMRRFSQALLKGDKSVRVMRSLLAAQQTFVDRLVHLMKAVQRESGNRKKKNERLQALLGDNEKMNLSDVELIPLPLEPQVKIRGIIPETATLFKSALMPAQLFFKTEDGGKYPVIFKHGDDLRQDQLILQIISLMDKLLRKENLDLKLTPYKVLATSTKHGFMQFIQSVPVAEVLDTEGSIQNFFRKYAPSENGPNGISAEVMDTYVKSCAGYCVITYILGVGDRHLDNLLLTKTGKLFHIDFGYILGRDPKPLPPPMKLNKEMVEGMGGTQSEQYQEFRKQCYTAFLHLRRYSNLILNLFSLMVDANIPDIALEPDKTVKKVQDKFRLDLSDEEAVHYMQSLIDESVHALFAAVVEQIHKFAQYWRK
Calcium/calmodulin-dependent protein kinase type II subunit beta (Homo sapiens), sequence (Q13554 whole entry): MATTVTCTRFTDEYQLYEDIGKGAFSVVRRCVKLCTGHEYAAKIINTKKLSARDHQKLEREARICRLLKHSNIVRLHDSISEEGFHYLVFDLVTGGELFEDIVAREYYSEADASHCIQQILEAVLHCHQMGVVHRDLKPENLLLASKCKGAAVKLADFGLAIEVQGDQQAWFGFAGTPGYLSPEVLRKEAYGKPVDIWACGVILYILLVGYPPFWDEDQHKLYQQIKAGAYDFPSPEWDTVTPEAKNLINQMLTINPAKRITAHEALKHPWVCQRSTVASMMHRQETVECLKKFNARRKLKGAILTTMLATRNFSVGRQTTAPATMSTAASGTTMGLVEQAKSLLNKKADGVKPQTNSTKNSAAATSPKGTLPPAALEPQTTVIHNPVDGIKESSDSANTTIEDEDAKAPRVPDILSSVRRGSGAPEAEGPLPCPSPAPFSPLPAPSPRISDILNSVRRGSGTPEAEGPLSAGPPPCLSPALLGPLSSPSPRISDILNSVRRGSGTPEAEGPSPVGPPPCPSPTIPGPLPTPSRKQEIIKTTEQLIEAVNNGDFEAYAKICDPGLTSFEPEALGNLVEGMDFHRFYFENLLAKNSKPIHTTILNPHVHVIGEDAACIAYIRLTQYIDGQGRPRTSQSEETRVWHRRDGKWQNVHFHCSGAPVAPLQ
ALK tyrosine kinase receptor (Homo sapiens), Q9UM73 [L1196M], sequence (Q9UM73 whole entry L1196M, looked up): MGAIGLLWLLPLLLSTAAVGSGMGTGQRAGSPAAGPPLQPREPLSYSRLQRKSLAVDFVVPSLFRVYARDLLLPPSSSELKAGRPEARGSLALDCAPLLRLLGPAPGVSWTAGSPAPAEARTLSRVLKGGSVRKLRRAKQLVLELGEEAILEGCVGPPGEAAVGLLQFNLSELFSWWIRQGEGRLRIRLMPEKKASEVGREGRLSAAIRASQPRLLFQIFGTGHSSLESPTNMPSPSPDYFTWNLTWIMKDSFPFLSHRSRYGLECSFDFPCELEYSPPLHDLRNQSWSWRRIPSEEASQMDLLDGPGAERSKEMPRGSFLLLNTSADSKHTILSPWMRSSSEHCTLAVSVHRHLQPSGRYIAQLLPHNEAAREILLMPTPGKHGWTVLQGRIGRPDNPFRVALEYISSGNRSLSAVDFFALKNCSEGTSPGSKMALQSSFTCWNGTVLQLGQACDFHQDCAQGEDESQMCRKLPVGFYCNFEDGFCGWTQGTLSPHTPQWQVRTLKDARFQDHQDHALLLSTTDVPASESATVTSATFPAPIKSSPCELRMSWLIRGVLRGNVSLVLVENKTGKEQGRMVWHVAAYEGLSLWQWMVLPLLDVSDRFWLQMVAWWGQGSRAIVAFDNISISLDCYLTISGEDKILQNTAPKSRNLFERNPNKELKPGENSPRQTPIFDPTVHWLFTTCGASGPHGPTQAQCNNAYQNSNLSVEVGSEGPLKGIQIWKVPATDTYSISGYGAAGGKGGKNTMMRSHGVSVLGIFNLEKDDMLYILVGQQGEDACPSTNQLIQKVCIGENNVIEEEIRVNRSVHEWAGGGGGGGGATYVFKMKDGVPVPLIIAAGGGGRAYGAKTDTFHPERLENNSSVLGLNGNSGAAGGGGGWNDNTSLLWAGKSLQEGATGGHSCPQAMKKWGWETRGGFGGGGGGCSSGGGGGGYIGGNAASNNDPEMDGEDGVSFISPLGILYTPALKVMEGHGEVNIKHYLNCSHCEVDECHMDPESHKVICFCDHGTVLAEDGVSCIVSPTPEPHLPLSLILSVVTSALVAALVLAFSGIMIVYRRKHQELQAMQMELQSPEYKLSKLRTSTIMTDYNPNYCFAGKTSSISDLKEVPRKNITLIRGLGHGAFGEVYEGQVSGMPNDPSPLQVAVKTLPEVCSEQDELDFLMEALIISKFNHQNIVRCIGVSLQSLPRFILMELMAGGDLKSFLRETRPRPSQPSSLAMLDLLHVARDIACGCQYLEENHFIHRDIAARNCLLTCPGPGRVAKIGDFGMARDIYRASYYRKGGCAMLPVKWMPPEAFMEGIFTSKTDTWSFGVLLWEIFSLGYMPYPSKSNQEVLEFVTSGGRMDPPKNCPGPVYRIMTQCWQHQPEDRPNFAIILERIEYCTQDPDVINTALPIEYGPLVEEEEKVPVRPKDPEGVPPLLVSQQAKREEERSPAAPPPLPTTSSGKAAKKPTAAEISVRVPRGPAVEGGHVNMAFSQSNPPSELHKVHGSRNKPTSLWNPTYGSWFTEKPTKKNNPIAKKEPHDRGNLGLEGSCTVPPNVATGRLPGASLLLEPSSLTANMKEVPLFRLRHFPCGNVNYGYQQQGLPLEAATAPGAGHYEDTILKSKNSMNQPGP
Tyrosine-protein kinase Yes (Homo sapiens), sequence (P07947 2-543 limits assumed): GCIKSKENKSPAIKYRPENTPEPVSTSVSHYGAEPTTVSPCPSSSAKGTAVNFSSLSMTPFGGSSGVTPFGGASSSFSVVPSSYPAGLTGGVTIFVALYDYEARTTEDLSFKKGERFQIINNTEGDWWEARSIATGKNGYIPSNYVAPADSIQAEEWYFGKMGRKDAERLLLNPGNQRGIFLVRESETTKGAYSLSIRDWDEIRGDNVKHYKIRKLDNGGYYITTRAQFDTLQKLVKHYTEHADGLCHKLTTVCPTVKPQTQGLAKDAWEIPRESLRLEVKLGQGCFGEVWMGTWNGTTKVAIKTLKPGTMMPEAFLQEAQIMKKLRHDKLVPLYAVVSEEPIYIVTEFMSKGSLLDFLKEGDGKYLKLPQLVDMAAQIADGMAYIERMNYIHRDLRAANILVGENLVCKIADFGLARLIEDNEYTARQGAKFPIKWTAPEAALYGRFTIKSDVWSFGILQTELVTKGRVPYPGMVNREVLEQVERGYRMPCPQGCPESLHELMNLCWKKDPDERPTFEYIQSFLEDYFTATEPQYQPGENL
Dual specificity mitogen-activated protein kinase kinase 3 (Homo sapiens), sequence (P46734 whole entry): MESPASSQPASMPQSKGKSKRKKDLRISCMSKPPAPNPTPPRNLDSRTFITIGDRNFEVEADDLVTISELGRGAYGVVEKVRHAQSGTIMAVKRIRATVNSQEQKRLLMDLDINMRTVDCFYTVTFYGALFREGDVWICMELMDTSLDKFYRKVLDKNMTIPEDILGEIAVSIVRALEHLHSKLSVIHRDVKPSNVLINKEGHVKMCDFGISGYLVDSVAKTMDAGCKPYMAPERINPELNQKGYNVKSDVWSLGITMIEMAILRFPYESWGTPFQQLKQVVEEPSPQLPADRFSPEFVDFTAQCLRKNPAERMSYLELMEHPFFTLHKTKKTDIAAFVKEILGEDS

CCCCN(CCCC)C(=O)CN1C[C@@H](c2cc(OC)c3c(c2)OCO3)[C@H](C(=O)O)[C@H]1CC(C)(C)CCC [A-545]
residual activity [1]: 100%
residual activity [2]: 89.7%
residual activity [3]: 100%
residual activity [4]: 94.4%
residual activity [5]: 100%
residual activity [6]: 98.7%
residual activity [7]: 100%
residual activity [8]: 93.3%
residual activity [9]: 81.9%
residual activity [10]: 100%
residual activity [11]: 100%
residual activity [12]: 98%
residual activity [13]: 100%
residual activity [14]: 100%
residual activity [15]: 100%
residual activity [16]: 90.2%
residual activity [17]: 100%
residual activity [18]: 89.5%
residual activity [19]: 97.1%
residual activity [20]: 99.1%
residual activity [21]: 99%
residual activity [22]: 88.5%
residual activity [23]: 95.3%
residual activity [24]: 95.3%
residual activity [25]: 75.7%
residual activity [26]: 81.3%
residual activity [27]: 98.3%
residual activity [28]: 100%
inhibition [29]: 6.5%
residual activity [30]: 100%
residual activity [31]: 97.8%
residual activity [32]: 100%
residual activity [33]: 70.3%
residual activity [34]: 82.2%
residual activity [35]: 100%
residual activity [36]: 88.1%
residual activity [37]: 100%
residual activity [38]: 100%
residual activity [39]: 100%
residual activity [40]: 100%
residual activity [41]: 100%
residual activity [42]: 100%
residual activity [43]: 82.9%
residual activity [44]: 90.5%
residual activity [45]: 100%

CCCCN(CCCC)C(=O)CN1C[C@H](c2cc(OC)c3c(c2)OCO3)[C@@H](C(=O)O)[C@@H]1CC(C)(C)CCC [ABT-546]
residual activity [1]: 100%
residual activity [2]: 80.9%
residual activity [3]: 100%
residual activity [4]: 100%
residual activity [5]: 96.1%
residual activity [6]: 49.9%
residual activity [7]: 100%
residual activity [8]: 99.3%
residual activity [9]: 100%
residual activity [10]: 100%
residual activity [11]: 100%
residual activity [12]: 69.7%
residual activity [13]: 100%
residual activity [14]: 100%
residual activity [15]: 100%
residual activity [16]: 100%
residual activity [17]: 70.6%
residual activity [18]: 57.5%
residual activity [19]: 100%
residual activity [20]: 100%
residual activity [21]: 100%
residual activity [22]: 100%
residual activity [23]: 100%
residual activity [24]: 100%
residual activity [25]: 100%
residual activity [26]: 100%
residual activity [27]: 62%
residual activity [28]: 56.9%
inhibition [29]: -7.9%
residual activity [30]: 100%
residual activity [31]: 71.8%
residual activity [32]: 100%
residual activity [33]: 100%
residual activity [34]: 100%
residual activity [35]: 100%
residual activity [36]: 100%
residual activity [37]: 67.3%
residual activity [38]: 100%
residual activity [39]: 100%
residual activity [40]: 100%
residual activity [41]: 56.1%
residual activity [42]: 100%
residual activity [43]: 71.4%
residual activity [44]: 70%
residual activity [45]: 100%
